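Grown in 96-well plates, cells were treated for 48 hours with each compound at five concentrations. Insufficient inhibition: endpoint recorded as highest concentration tested. GI50 marks 50% less growth. TGI is the concentration that stops growth completely.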
How the values were obtained:
Assay in all cases: NCI tumour cell line growth inhibition, 48 h
[1] = test system: 786-0 renal
[2] = test system: ACHN renal
[3] = test system: BT-549 breast
[4] = test system: COLO 205 colon
[5] = test system: HS 578T breast
[6] = test system: RPMI-8226 leukemia
[7] = test system: SF-295 CNS
[8] = test system: SNB-75 CNS
[9] = test system: SR leukemia
[10] = test system: CCRF-CEM leukemia

| SMILES | GI50 [1] [µM] | TGI [1] [µM] | GI50 [2] [µM] | TGI [2] [µM] | GI50 [3] [µM] | TGI [3] [µM] | GI50 [4] [µM] | TGI [4] [µM] | GI50 [5] [µM] | TGI [5] [µM] | GI50 [6] [µM] | TGI [6] [µM] | GI50 [7] [µM] | TGI [7] [µM] | GI50 [8] [µM] | TGI [8] [µM] | GI50 [9] [µM] | TGI [9] [µM] | GI50 [10] [µM] | TGI [10] [µM] |
| --- | --- | --- | --- | --- | --- | --- | --- | --- | --- | --- | --- | --- | --- | --- | --- | --- | --- | --- | --- | --- |
| COc1ccc(Cn2c(N)c(S(=O)(=O)c3ccc(Cl)cc3)c3nc(C#N)c(C#N)nc32)cc1 | 3.33 | > 50 | 6.22 | > 50 | 34.3 | > 50 | > 50 | > 50 | 14.6 | > 50 | 22.5 | > 50 | 10.8 | > 50 | > 50 | > 50 | 29.9 | > 50 | – | – |
| CCc1ccc(/C=C/c2ccc(O)c3ncccc23)[n+](C)c1 | > 100 | > 100 | > 61.1 | > 100 | 15.1 | > 100 | 8.07 | > 89.8 | 51.2 | > 100 | 3.08 | > 100 | 1.88 | > 100 | > 100 | > 100 | 2.76 | > 25.9 | 4.95 | > 100 |
| Nc1c(C(=O)c2ccccc2)cnn1-c1ccc(F)cc1 | > 25 | > 25 | > 25 | > 25 | > 25 | > 25 | > 25 | > 25 | > 25 | > 25 | > 25 | > 25 | > 25 | > 25 | > 25 | > 25 | > 25 | > 25 | > 25 | > 25 |
| CN(C)c1ncnc2c1ncn2CCn1cnc2c(N(C)C)ncnc21 | – | > 100 | – | > 100 | – | > 100 | – | > 100 | – | > 100 | – | > 100 | – | > 100 | – | > 100 | – | > 100 | – | > 100 |
| O=C(Nc1cc(C(F)(F)F)ccc1Cl)c1cccc(NC2=C(Cl)C(=O)N(Cc3ccccc3)C2=O)c1 | 38.5 | > 100 | 99.9 | > 100 | 15.6 | > 100 | 41.5 | > 100 | 53.7 | > 100 | 2.92 | 50 | 29.1 | > 100 | > 100 | > 100 | 1.26 | 3.16 | 2.71 | > 100 |
| O=[P@@]1(c2ccccc2)O[C@H](COCc2ccccc2)[C@@H](OCc2ccccc2)[C@H](OCc2ccccc2)[C@H]1NCc1ccccc1 | 3.03 | > 100 | 3.38 | > 100 | 2.89 | 16.2 | 1.93 | 3.71 | 3.43 | > 100 | 2.97 | > 100 | 2.05 | 6.68 | 2.08 | 47.5 | 2.37 | 6.69 | 3.23 | > 100 |
| CC(C)=CCc1cc2c(cc1O)OC[C@H]1c3cc4c(cc3O[C@@H]21)OCO4 | – | > 100 | – | > 100 | – | 95.3 | – | > 100 | – | 75.5 | – | – | – | > 100 | – | > 100 | – | > 100 | – | 80.8 |
| CC1(C)N=C(N)N=C(N)N1c1ccc(CCCCc2ccc(Cl)c(S(=O)(=O)F)c2)c(Cl)c1 | 1.63 | > 39.7 | 6.56 | 21.1 | 1.55 | 12.5 | 1.71 | 7.98 | 9.71 | 34.2 | 0.527 | 3.32 | 0.995 | 10.6 | 10.4 | > 52.5 | 0.186 | 3.36 | 0.168 | 8.65 |
| CS(=O)(=O)Nc1cc(-c2ccc3ncnc(Nc4c(Cl)ccc5c4OCO5)c3c2)cnc1Cl | 0.233 | 6.46 | 0.186 | > 48.1 | 0.132 | 1.04 | 0.263 | 1.35 | 0.0477 | 0.521 | 0.148 | 0.566 | 0.171 | 1.1 | – | 0.0972 | 0.325 | 3.41 | 0.15 | 6.84 |
| Oc1ccc2ccccc2c1N=Nc1ccc(Br)cc1 | – | > 100 | – | > 100 | – | > 100 | – | > 100 | – | > 100 | – | > 100 | – | > 100 | – | > 100 | – | > 100 | – | > 100 |

Reference: PubChem BioAssay (NCI)
